The results in this text go back to patent publication US7429474B2, “2-O sulfatase compositions and methods of analyzing therewith” (Massachusetts Institute of Technology, priority 2003, dated 2008).

Entries after “also recorded” stand apart in the source; their conditions may differ.

Common to all, as to format: biochemical, F. heparinum
The subject of series [1] is 2-O sulfatase. The experiment in a line: effect of ionic strength, metal ions, EDTA, buffers and cysteine-reactive agents on 2-O sulfatase activity. The following applies: for effect of additive on enzyme activity: EDTA up to 1 mM, CaCl2, MgCl2, MnCl2 up to 10 mM, DTNB, DTT, 50 mM phosphate buffer pH 6.5. As for the experimental part: For pilot experiments measuring the relative effect of ionic strength on 2-O sulfatase activity, the NaCl concentration was varied from 0.05 to 1 M in 50 mM MES buffer (pH 6.5) that included 500 μM of the disulfated disaccharide ΔU2SHNS,6S and 50 nM enzyme. The effect of pH on sulfatase activity was assessed as a function of catalytic efficiency by measuring kinetic parameters in the following two overlapping pH buffer systems ranging from 5.0 to 8.0: 50 mM MES at pH 5.0, 5.5, 6.5, and 7.0; 50 mM MOPS at pH 6.5, 7.0, 7.5 and 8.0. Assays included 25 nM enzyme, 50 mM NaCl and varying concentrations of the disulfated disaccharide substrate ΔU2SHNS. Km and kcat values were extrapolated from Vo vs. [S] curves fit to the Michaelis-Menten equation by a non-linear least squares regression and the relative kcat/Km ratios plotted as a function of buffer pH. […] Relative activities were measured at a single saturating substrate concentration (4 mM) using ΔU2SHNS.
We also examined 2-O sulfatase activity relative to ionic composition.

For series [2], the system named is 2-O sulfatase. The experiment in a line: desulfation of 2-O sulfated chondroitin disaccharides under extended and exhaustive conditions. The following applies: 4× higher enzyme concentration, 20 minute period.
Series [3] concerns the target T1, 2-O sulfatase (2-O ΔN^1-24) (Pedobacter heparinus, UniProt C6Y1N2). The series can be described thus: 2-O sulfatase assay and disaccharide substrate kinetics by capillary electrophoresis.
The target of series [4] is T1, 2-O sulfatase (2-O ΔN^1-24). The series can be described thus: exolytic desulfation of oligosaccharides by 2-O sulfatase (CE compositional analysis and MALDI-MS).
Substrate in series [5]: O=C(O)C1=C[C@H](O)[C@@H](OS(=O)(=O)O)[C@H](O[C@H]2[C@H](O)[C@@H](NS(=O)(=O)O)C(O)O[C@@H]2COS(=O)(=O)O)O1
The experiment in a line: 2-O sulfatase assay and disaccharide substrate kinetics by capillary electrophoresis. The following applies: other: 25 nM 2-O ΔN^1-24, 50 mM imidazole pH 6.5, 50 mM NaCl, 30° C., chondroitin disaccharide approximated from double reciprocal plots.

Substrate in series [6]: CC(=O)N[C@H]1C(O)O[C@H](CO)[C@@H](O[C@@H]2OC(C(=O)O)=C[C@H](O)[C@H]2OS(=O)(=O)O)[C@@H]1O
Described as above. The following applies: other: 25 nM 2-O ΔN^1-24, 50 mM imidazole pH 6.5, 50 mM NaCl, 30° C., chondroitin disaccharide approximated from double reciprocal plots.

Substrate in series [7]: O=C(O)C1=C[C@H](O)[C@@H](OS(=O)(=O)O)[C@H](O[C@H]2[C@H](O)[C@@H](NS(=O)(=O)O)C(O)O[C@@H]2CO)O1
The series is described as above. The conditions noted are these: other: 25 nM 2-O ΔN^1-24, 50 mM imidazole pH 6.5, 50 mM NaCl, 30° C., chondroitin disaccharide approximated from double reciprocal plots.

Substrate in series [8]: CC(=O)N[C@H]1C(O)O[C@H](COS(=O)(=O)O)[C@@H](O[C@@H]2OC(C(=O)O)=C[C@H](O)[C@H]2OS(=O)(=O)O)[C@@H]1O
The series is described as above. The following applies: other: 25 nM 2-O ΔN^1-24, 50 mM imidazole pH 6.5, 50 mM NaCl, 30° C., chondroitin disaccharide approximated from double reciprocal plots.

On to `[Cl-].[Cl-].[Mg+2]` [MgCl2], for which the “effect of additive on enzyme activity” value in the series on 2-O sulfatase [1] was “no substantive effect”.
On to `CC(=O)N[C@H]1C(O)O[C@H](CO)[C@H](OS(=O)(=O)O)[C@@H]1O[C@@H]1OC(C(=O)O)=C[C@H](O)[C@H]1OS(=O)(=O)O` (stereo partly drawn) [ΔU2SGalNAc,4S], for which the substrate desulfated entry in the series with 2-O sulfatase [2] was “less than 10%”.
As for `O[C@@H](CS)[C@@H](O)CS` [DTT], in the series on 2-O sulfatase [1], the “effect of additive on enzyme activity” value is recorded as “not inhibited”.
For the molecule `CC(=O)N[C@H]1C(O)O[C@H](COS(=O)(=O)O)[C@H](O)[C@@H]1O[C@@H]1OC(C(=O)O)=C[C@H](O)[C@H]1OS(=O)(=O)O` (stereo partly drawn) [ΔU2SGalNac.6S], the Km in series [3] (25 nM 2-O ΔN^1-24, 50 mM imidazole pH 6.5, 50 mM NaCl, 30° C., chondroitin disaccharide approximated from double reciprocal plots) is over 10000 µM. Also, the kcat in series [3] (25 nM 2-O ΔN^1-24, 50 mM imidazole pH 6.5, 50 mM NaCl, 30° C., substrate 0.1-4 mM, chondroitin disaccharide approximated from double reciprocal plots) is under 100 s⁻¹. For the same molecule, the “hydrolysis under the standard kinetic conditions” value in series [3] (same kinetic conditions as heparin disaccharides) is reported as “albeit neglibly, hydrolyzed; also recorded: only neglibly hydrolyzed”. For the same molecule, the substrate desulfated result with 2-O sulfatase [2] is recorded as “approximately 40%”.
In the case of `O=C(O)CN(CCN(CC(=O)O)CC(=O)O)CC(=O)O` [EDTA], in the series with 2-O sulfatase [1], the “effect of additive on enzyme activity” value was “largely unaffected”. For the same molecule, in the series with 2-O sulfatase [1] (preincubation of enzyme with 5 mM EDTA, trisulfated disaccharide substrate), the inhibition of activity entry is recorded as “approximately 10%”.
In the case of `O=C(O)c1cc(SSc2ccc([N+](=O)[O-])c(C(=O)O)c2)ccc1[N+](=O)[O-]` [DTNB], the “effect of additive on enzyme activity” value in the series on 2-O sulfatase [1] is reported as “not inhibited”.
Turning to `[Ca+2].[Cl-].[Cl-]` [CaCl2], the “effect of additive on enzyme activity” value in the series with 2-O sulfatase [1] is “no substantive effect”.
As to `CC(=O)NC1C(OC2C(C(=O)O)OC(OC3C(COS(=O)(=O)O)OC(O)C(NS(=O)(=O)O)C3OS(=O)(=O)O)C(O)C2O)OC(COS(=O)(=O)O)C(OC2OC(C(=O)O)C(OC3OC(COS(=O)(=O)O)C(OC4OC(C(=O)O)C(OC5OC(COS(=O)(=O)O)C(OC6OC(C(=O)O)C(OC7OC(COS(=O)(=O)O)C(OC8OC(C(=O)O)=CC(O)C8OS(=O)(=O)O)C(O)C7NS(=O)(=O)O)C(O)C6OS(=O)(=O)O)C(O)C5NS(=O)(=O)O)C(O)C4OS(=O)(=O)O)C(O)C3NS(=O)(=O)O)C(O)C2O)C1O` [AT-10, ΔU2SHNS,6SI2SHNS,6SI2SHNS,6SIHNAc,6SGHNS,3S,6S], the “disappearance of disaccharide ΔU2SHNS,6S in compositional analysis” value in series [4] (2-O sulfatase then exhaustive heparinase treatment, CE) was “by only one-third”. In series [4] (MALDI-MS), the “sulfates lost after exhaustive 2-O sulfatase treatment (mass spectrometry)” value was “Loss of a single sulfate”.
Regarding `O=C(O)C1=C[C@H](O)[C@@H](OS(=O)(=O)O)[C@H](O[C@H]2[C@H](O)[C@@H](NS(=O)(=O)O)C(O)O[C@@H]2COS(=O)(=O)O)O1` (stereo partly drawn) [ΔU2SHNS,6S], the “position specificity of desulfation by the recombinant sulfatase” value in series [3] (ΔU2SHNS,6S versus ΔUHNS,6S, CE) is “only hydrolyzed a single sulfate, namely, the one found at the 2-OH position”.
As for `[Cl][Mn][Cl]` [MnCl2], the “effect of additive on enzyme activity” value in the series on 2-O sulfatase [1] is on record as “no substantive effect”.

B1: 2-O sulfatase (2-O ΔN^1-24) (Pedobacter heparinus DSM 2366) (protein)
chain: QTSKVAASRPNIIIIMTDQQTADAMSNAGNKDLHTPAMDVLAANGTRFTRAYCAQPLCTPSRSAIFSGKMPHETGFTGNTPEKDGQWPDSVLMMGKIFKAGGYKTGYVGKWHLPVPVTKVAQHGFETIENTGMGDYTDAVTPSQCANFIKKNKDNPFLLVASFLNPHDICEWARGDNLKMDVLDAAPDTAFCPKLPANWPIPAFEPAIVREQQKVNPRTYPSVGWNESQWRKYRWAYNRLVEKVDNYMAMVLGSLKKYGIEDNTIIIFTSDHGDGYAAHEWNQKQILYEEAARIPFIISKIGQWKARTDDQLVCNGIDIIPTICGFAGIAKPVGLKGLDLSKRIANPSVKLRDTLVIETDFADNELLLGIKGRAVITKDFKYIVYDKGEIREQLFDLEKDAGEMDNLAVKPAYKKKLNEMRAYLKLWCKQHQDSFYALKK
B1: the Km came out at 87 µM in series [5], 4660 µM in series [6], 1060 µM in series [7] and 515 µM in series [8]. For the same molecule, the kcat in series [5] worked out at 814 s⁻¹; in series [6], 673 s⁻¹; in series [7], 911 s⁻¹; in series [8], 1670 s⁻¹. For the same molecule, the catalytic efficiency (kcat/Km) in series [5] came out at 9.36e+06 M⁻¹ s⁻¹; in series [6], 144000 M⁻¹ s⁻¹; in series [7], 859000 M⁻¹ s⁻¹; in series [8] it was 3.25e+06 M⁻¹ s⁻¹.
